Experimental data: US10385022B2, “3-amino-pyridines as GPBAR1 agonists” (HOFFMANN-LA ROCHE INC., priority 2011, dated 2019)
pEC50: −log10 of the molar value.

Target: human GPBAR1 receptor (Homo sapiens (Human), UniProt Q8TDU6)
Test: functional cAMP assay in CHO-dhfr(minus) cells expressing human GPBAR1 receptors
Format: cell-based
Settings: CHO-dhfr(minus) cells expressing human GPBAR1, 30 min at 30° C.
How it was run: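 Functional cAMP responses in a human GPBAR1-transfected CHO-dhfr- clone, picked using lithocholic acid as agonist, gave the EC50 values. Parallel testing in untransfected CHO cells served as a specificity control.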

Chain of human GPBAR1 receptor (Q8TDU6 whole entry): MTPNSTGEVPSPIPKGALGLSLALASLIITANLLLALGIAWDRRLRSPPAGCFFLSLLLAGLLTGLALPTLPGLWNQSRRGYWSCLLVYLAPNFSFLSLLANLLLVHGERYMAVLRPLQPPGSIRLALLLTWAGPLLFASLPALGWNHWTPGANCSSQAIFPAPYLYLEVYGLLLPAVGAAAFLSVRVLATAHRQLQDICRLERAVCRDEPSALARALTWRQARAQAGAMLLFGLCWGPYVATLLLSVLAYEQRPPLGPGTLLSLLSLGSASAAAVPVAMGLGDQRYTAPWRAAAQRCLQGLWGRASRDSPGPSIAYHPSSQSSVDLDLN

SMILES | pEC50
Cc1ccccc1-c1ccncc1N(C)C(=O)c1cc(N2CCCC2=O)cc(C(F)(F)F)c1 [Example 185, N-Methyl-3-(2-oxo-pyrrolidin-1-yl)-N-(4-o-tolyl-pyridin-3-yl)-5-trifluoromethyl-benzamide] | 5.62
COc1cc(F)ccc1-c1ccncc1N(CC(N)=O)C(=O)c1cc(C(F)(F)F)cc(S(C)(=O)=O)c1 [Example 187, N-Carbamoylmethyl-N-[4-(4-fluoro-2-methoxy-phenyl)-pyridin-3-yl]-3-methanesulfonyl-5-trifluoromethyl-benzamide] | 6.32
COC(=O)CN(C(=O)c1cc(C(F)(F)F)cc(C(F)(F)F)c1)c1cnccc1-c1cc(F)c(F)cc1OC [Example 188, {(3,5-Bis-trifluoromethyl-benzoyl)-[4-(4,5-difluoro-2-methoxy-phenyl)-pyridin-3-yl]-amino}-acetic acid methyl ester] | 7.15
CS(=O)(=O)CCN(C(=O)c1cc(C(F)(F)F)cc(C(F)(F)F)c1)c1cnccc1-c1ccccc1F [Example 191, N-[4-(2-Fluoro-phenyl)-pyridin-3-yl]-N-(2-methanesulfonyl-ethyl)-3,5-bis-trifluoromethyl-benzamide] | 6.95
COc1cc(F)ccc1-c1ccncc1N(CCS(C)(=O)=O)C(=O)c1cc(C(F)(F)F)cc(C(F)(F)F)c1 [Example 192, N-[4-(4-Fluoro-2-methoxy-phenyl)-pyridin-3-yl]-N-(2-methanesulfonyl-ethyl)-3,5-bis-tri fluoro methyl-benzamide] | 6.98
COc1cccc(F)c1-c1ccncc1N(CC(N)=O)C(=O)c1cc(C(F)(F)F)nc(C(F)(F)F)c1 [Example 199, N-Carbamoylmethyl-N-[4-(2-fluoro-6-methoxy-phenyl)-pyridin-3-yl]-2,6-bis-trifluoromethyl-isonicotinamide] | 7.48
COc1cc(F)ccc1-c1cc(C)ncc1N(C)C(=O)c1cc(C(F)(F)F)cc(S(C)(=O)=O)c1 [Example 202, N-[4-(4-Fluoro-2-methoxy-phenyl)-6-methyl-pyridin-3-yl]-3-methanesulfonyl-N-methyl-5-trifluoromethyl-benzamide] | 6.80
COc1cccc(F)c1-c1ccncc1N(C)C(=O)c1cc(C(F)(F)F)cc(S(C)(=O)=O)c1 [Example 205, N-[4-(2-Fluoro-6-methoxy-phenyl)-pyridin-3-yl]-3-methanesulfonyl-N-methyl-5-trifluoromethyl-benzamide] | 7.77
COc1cc(F)ccc1-c1ccncc1N(CC1(C)COC1)C(=O)c1cc(C(F)(F)F)nc(C(F)(F)F)c1 [Example 207, N-[4-(4-Fluoro-2-methoxy-phenyl)-pyridin-3-yl]-N-(3-methyl-oxctan-3-ylmethyl)-2,6-bis-trifluoromethyl-isonicotinamide] | 6.50
Cc1nn(C)c(C)c1-c1ccncc1N(C)C(=O)c1cc(C(F)(F)F)cc(C(F)(F)F)c1 [Example 208, N-Methyl-3,5-bis-trifluoromethyl-N-[4-(1,3,5-trimethyl-1H-pyrazol-4-yl)-pyridin-3-yl]-benzamide] | 5.53
COc1cc(F)ccc1-c1ccnc(Cl)c1N(C)C(=O)c1cc(C(F)(F)F)cc(S(C)(=O)=O)c1 [Example 212, N-[2-Chloro-4-(4-fluoro-2-methoxy-phenyl)-pyridin-3-yl]-3-methanesulfonyl-N-methyl-5-trifluoromethyl-benzamide] | 7.12
COC(=O)CN(C(=O)c1cc(C(F)(F)F)cc(S(C)(=O)=O)c1)c1cnccc1-c1ccccc1F [Example 213, [[4-(2-Fluoro-phenyl)-pyridin-3-yl]-(3-methanesulfonyl-5-trifluoromethyl-benzoyl)-amino]-acetic acid methyl ester] | 6.60
CS(=O)(=O)c1cc(C(=O)N(CC(F)(F)F)c2cnccc2-c2ccccc2F)cc(C(F)(F)F)c1 [Example 214, N-[4-(2-Fluoro-phenyl)-pyridin-3-yl]-3-methanesulfonyl-N-(2,2,2-trifluoro-ethyl)-5-trifluoromethyl-benzamide] | 6.58
CS(=O)(=O)c1cc(C(=O)N(CC(F)F)c2cnccc2-c2ccccc2F)cc(C(F)(F)F)c1 [Example 215, N-(2,2-Difluoro-ethyl)-N-[4-(2-fluoro-phenyl)-pyridin-3-yl]-3-methanesulfonyl-5-trifluoromethyl-benzamide] | 6.67
COc1cc(F)ccc1-c1ccncc1N(C)C(=O)c1cc(SCCO)cc(C(F)(F)F)c1 [Example 216, N-[4-(4-Fluoro-2-methoxy-phenyl)-pyridin-3-yl]-3-(2-hydroxy-ethylsulfanyl)-N-methyl-5-trifluoromethyl-benzamide] | 7.42
CS(=O)(=O)c1cc(C(=O)N(CC(N)=O)c2cnccc2-c2ccccc2F)cc(C(F)(F)F)c1 [Example 219, N-Carbamoylmethyl-N-[4-(2-fluoro-phenyl)-pyridin-3-yl]-3-methanesulfonyl-5-trifluoromethyl-benzamide] | 5.52
CCc1cc(-c2ccccc2C)c(N(C)C(=O)c2cc(C(F)(F)F)cc(C(F)(F)F)c2)cn1 [Example 220, N-(6-Ethyl-4-o-tolyl-pyridin-3-yl)-N-methyl-3,5-bis-trifluoromethyl-benzamide] | 5.70

Further lines, results first:

pEC50 | SMILES
7.33 | COc1cc(F)c(F)cc1-c1ccncc1N(CC(N)=O)C(=O)c1cc(C(F)(F)F)cc(C(F)(F)F)c1 [Example 189, N-Carbamoylmethyl-N-[4-(4,5-difluoro-2-methoxy-phenyl)-pyridin-3-yl]-3,5-bis-trifluoromethyl-benzamide]
7.05 | Cc1ccccc1-c1ccncc1N(C)C(=O)c1cc(C(F)(F)F)cc(C(F)(F)F)n1 [Example 190, 4,6-Bis-trifluoromethyl-pyridine-2-carboxylic acid methyl-(4-o-tolyl-pyridin-3-yl)-amide]
6.34 | COc1cc(F)c(F)cc1-c1ccncc1N(CC(N)=O)C(=O)c1cc(C(F)(F)F)cc(S(C)(=O)=O)c1 [Example 193, N-(2-Amino-2-oxoethyl)-N-(4-(4,5-difluoro-2-methoxyphenyl)pyridin-3-yl)-3-(methylsulfonyl)-5-(trifluoromethyl)benzamide]
6.59 | Cc1ccccc1-c1ccncc1N(C)C(=O)c1cc(C(F)(F)F)nc(S(C)(=O)=O)c1 [Example 194, 2-Methanesulfonyl-N-methyl-N-(4-o-tolyl-pyridin-3-yl)-6-trifluoromethyl-isonicotinamide]
7.89 | COC(=O)CN(C(=O)c1cc(C(F)(F)F)nc(C(F)(F)F)c1)c1cnccc1-c1c(F)cccc1OC [Example 195, Methyl 2-(N-(4-(2-fluoro-6-methoxyphenyl)pyridin-3-yl)-2,6-bis(trifluoromethyl)isonicotinamido)acetate]
7.64 | COC(=O)CN(C(=O)c1cc(C(F)(F)F)nc(C(F)(F)F)c1)c1cnccc1-c1ccccc1F [Example 196, Methyl 2-(N-(4-(2-fluorophenyl)pyridin-3-yl)-2,6-bis(trifluoromethyl)isonicotinamido)acetate]
6.98 | NC(=O)CN(C(=O)c1cc(C(F)(F)F)nc(C(F)(F)F)c1)c1cnccc1-c1ccccc1F [Example 197, N-Carbamoylmethyl-N-[4-(2-fluoro-phenyl)-pyridin-3-yl]-2,6-bis-trifluoromethyl-isonicotinamide]
7.04 | COc1cc(C(=O)N(C)c2cnccc2-c2ccc(F)cc2OC)cc(Cl)n1 [Example 198, 2-Chloro-N-[4-(4-fluoro-2-methoxy-phenyl)-pyridin-3-yl]-6-methoxy-N-methyl-isonicotinamide]
5.92 | Cc1ccccc1-c1ccncc1N(C(=O)c1cc(C(F)(F)F)cc(C(F)(F)F)c1)C1COC1 [Example 200, N-Oxetan-3-yl-N-(4-o-tolyl-pyridin-3-yl)-3,5-bis-trifluoromethyl-benzamide]
6.57 | COc1cc(F)ccc1-c1cc(Cl)ncc1N(C)C(=O)c1cc(C(F)(F)F)cc(S(C)(=O)=O)c1 [Example 201, N-[6-Chloro-4-(4-fluoro-2-methoxy-phenyl)-pyridin-3-yl]-3-methanesulfonyl-N-methyl-5-trifluoromethyl-benzamide]
7.27 | CCC(=O)CN(C(=O)c1cc(C(F)(F)F)nc(C(F)(F)F)c1)c1cnccc1-c1ccc(F)cc1OC [Example 203, N-[4-(4-Fluoro-2-methoxy-phenyl)-pyridin-3-yl]-N-(2-oxo-butyl)-2,6-bis-trifluoromethyl-isonicotinamide]
6.21 | CCC(=O)CN(C(=O)c1cc(C(F)(F)F)cc(S(C)(=O)=O)c1)c1cnccc1-c1ccc(F)cc1OC [Example 204, N-[4-(4-Fluoro-2-methoxy-phenyl)-pyridin-3-yl]-3-methanesulfonyl-N-(2-oxo-butyl)-5-trifluoromethyl-benzamide]
7.64 | COc1cc(C(=O)N(C)c2cnccc2-c2ccc(F)cc2OC)cc(C(F)(F)F)n1 [Example 206, N-[4-(4-Fluoro-2-methoxy-phenyl)-pyridin-3-yl]-2-methoxy-N-methyl-6-trifluoromethyl-isonicotinamide]
5.83 | Cc1nc(C)c(-c2ccncc2N(C)C(=O)c2cc(C(F)(F)F)cc(C(F)(F)F)c2)s1 [Example 209, N-[4-(2,4-Dimethyl-thiazol-5-yl)-pyridin-3-yl]-N-methyl-3,5-bis-trifluoromethyl-benzamide]
6.02 | Cc1cn[nH]c1-c1ccncc1N(C)C(=O)c1cc(C(F)(F)F)cc(C(F)(F)F)c1 [Example 211, N-Methyl-N-[4-(4-methyl-2H-pyrazol-3-yl)-pyridin-3-yl]-3,5-bis-trifluoromethyl-benzamide]
7.51 | COCCS(=O)(=O)c1cc(C(=O)N(C)c2cnccc2-c2ccc(F)cc2OC)cc(C(F)(F)F)c1 [Example 217, N-[4-(4-Fluoro-2-methoxy-phenyl)-pyridin-3-yl]-3-(2-methoxy-ethanesulfonyl)-N-methyl-5-trifluoromethyl-benzamide]
7.14 | COc1cc(F)ccc1-c1ccncc1N(C)C(=O)c1cc(C(F)(F)F)cc(S(=O)(=O)CCO)c1 [Example 218, N-[4-(4-Fluoro-2-methoxy-phenyl)-pyridin-3-yl]-3-(2-hydroxy-ethanesulfonyl)-N-methyl-5-trifluoromethyl-benzamide]
